Values quoted from earlier work in US20040224916A1 (priority 2003, published 2004).
Where two headings read alike, the source gives them in different places.

What was measured:
HIV-1 = details: in vitro, with agents acting at steps other than reverse transcription, including recombinant soluble CD4, castanospermine, recombinant interferon-α
[1] = dogs and rhesus monkeys

## Cc1cn([C@H]2C[C@H](N=[N+]=[N-])[C@@H](CO)O2)c(=O)[nH]c1=O [AZT, 3′-azido, 3′-deoxythymidine]
HIV-1
  antiviral activity in combination: synergistic antiviral activity

## CC(C)OC(=O)[C@H](C)N[P@](=O)(CO[C@H](C)Cn1cnc2c(N)ncnc21)Oc1ccccc1 [GS-7340, 9-[(R)-2-[[(S)-[[(S)-1-(isopropoxycarbonyl)ethyl]amino]phenoxyphosphinyl]methoxy]propyl]adenine]
HIV
  effectiveness of S-configuration (at phosphorus) diastereomer relative to R-configuration diastereomer: 10 fold
HIV; as stated in b46
  effectiveness relative to tenofovir against HIV in culture: 1000 times
HIV; as stated in b47
  effectiveness relative to tenofovir against HIV in culture: 100 fold
[1]
  stability in plasma: stable in plasma
